From patent publication US6482850B2, “Hydrolysis-promoting hydrophobic taxane derivatives” (priority 1995, dated 2002)

How the values were obtained:
[1] = tested on: MCF-7 human breast carcinoma; experiment: In vitro sensitivity, sulforhodamine B cytotoxicity assay, MCF-7 (Table 2); type: cell-based; conditions: Homo sapiens, MCF7; 72-hour incubation; averaged from two separate experiments
A549 human lung cancer = experiment: s.c. A549 tumor, i.v. treatment, tumor volume (FIG. 8); type: in vivo, mice; conditions: i.v., independent of the dose schedule; BrC16HT 12.5-25 mg/kg, Taxol® 25 mg/kg
Excerpt: Mice were sacrificed when the average tumor volume of the group reached 1500 mm^3.

CDF1 mice [2] = experiment: In vivo toxicity, i.p. x 5, non-tumor bearing mice; conditions: 30 days observation
Procedure: (§1) A separate group (n=5) was injected with concentrations of Cremophor® EL and ethanol (in PBS) equivalent to the highest concentration of the test treatment. Mortality was recorded daily and body weights taken at least twice weekly for an observation period of 30 days.

[3] = In vivo toxicity, i.p. x 5, non-tumor bearing mice; conditions: CDF1, mouse, in vivo, ip; i.p. once daily for five consecutive days; read-out: maximum tolerated i.p. dose (MTD, highest dose with no deaths)
Procedure: as §1

[4] = tested on: HT-29 human colon carcinoma cells; experiment: In vitro sensitivity, sulforhodamine B cytotoxicity assay, HT-29 (Table 2); type: cell-based; conditions: Homo sapiens, HT-29; 72-hour incubation; averaged from two separate experiments
[5] = tested on: OVCAR-3 human ovarian cancer; experiment: i.p. OVCAR-3 tumor, i.v. treatment, survival (FIG. 6); type: in vivo, mice
Procedure: Mice were observed daily for mortality and % ILS was calculated as described above.

[6] = Pharmacokinetic, plasma levels after i.v. administration; conditions: 25 mg/kg i.v., CDF1 female mice, 8 hours
Procedure: (§2) Control mice received an equivalent concentration of Cremophor® EL and ethanol (in PBS) only. At 1, 4, 8, 24 or 48 hr after injection mice were sacrificed and blood was collected via heart puncture into 1 cc syringes containing 0.05 mL of a 0.129M Sodium citrate solution (Baxter, N.J.). Samples were centrifuged at 10,000 ×g for 3 min and plasma removed. Extraction of test materials from plasma was done by adding an equal volume of acetonitrile containing 2C12-HT, 50 μg/ml, as an internal standard, and vortexing vigorously for 30 sec. Samples were then centrifuged for 3 min at 10,000 ×g and supernatant and drug levels determined via HPLC as described previously.

A549 cancer cells = experiment: cells; conditions: Homo sapiens, A549, 72 h, read-out: GI50 ± S.D. A549
Procedure: Briefly, 96-well microtiter plates were inoculated (100 μL/well) with 5×10^3 (A549) or 7.5×10^3 (OVCAR-3) cells/well, in RPMI-1640 supplemented with 10% FBS (growth media). The plates were incubated for 24 hr at 37° C., 100% humidity and 5% CO2. At 24 hours, growth media (100 μL) was added to designated “time zero” plates. Similarly, serial dilutions of drug or vehicle (in media) were added (100 μL aliquots) to the test and vehicle control wells at twice the predetermined highest concentration. There were triplicate wells on each plate and duplicate plates (total 6 wells) for each drug concentration. The test plates were incubated as above for 72 hr. Cells (including time zero plates) were then fixed with 50 μL of 50% trichloroacetic acid (TCA) (w:v) for adherent cells or 80% TCA for suspended cells, and plates refrigerated at 4° C. for 1 hr. The supernatant was discarded (suspended cell plates were first centrifuged) and the wells rinsed six times with tap water and air-dried. One hundred microliters of 0.4% SRB in 1% acetic acid were added to each well and the plates were incubated under ambient (RT) conditions for 10 min. Unbound stain was removed by rinsing the wells three times with 1% acetic acid. The plates were then air-dried for 24 hr. The bound stain was solubilized with 100 μL of 10 mM Tris buffer and the optical density was read spectrophotometrically at 490 nm (Microplate Reader Model 3550-UV, Bio-Rad, Hercules, Calif.). Percent growth was calculated as follows: (T-T0) / (C-T0)×100; where (T)=mean optical density of treated wells at a given drug concentration, (T0)=mean optical density of time zero wells, and (C)=mean optical density of control wells.

[7] = tested on: OVCAR-3 human ovarian cancer; experiment: i.p. OVCAR-3 tumor, i.p. treatment, survival
Procedure: C.B-17 SCID female mice were injected i.p. with 5×10^6 OVCAR-3 human ovarian cancer cells (day 0). […] Note that long-term survivors (mice that survived through day 300 after cell inoculation) were not included in mean, median, or % ILS calculations.

A549 human NSCLC = experiment: i.p. A549 tumor, i.p. treatment, survival; conditions: i.p. on days 1, 3, 5, 7 & 9
Procedure: Note that long-term survivors (mice that survived through day 300 after cell inoculation) were not included in mean, median, or % ILS calculations.
SCID mice (6/group) were injected with 5×10^6 A549 human NSCLC cells i.p. (day 0).

CDF1 female mice = experiment: Acute toxicity of liposomal paclitaxel or paclitaxel derivative given intraperitoneally; conditions: liposomes, i.p.
Procedure: Moreover, liposomes containing either paclitaxel or a 2′-(2-bromo) hydrophobic paclitaxel derivative (containing either a six-carbon (C-6), C-8, C-12, C-14 or C-16 acyl chain at the 2′ position) were administered, intraperitoneally in 5 doses, to SCID (severe combined inimunodeficiency) mice bearing a human ovarian cancer (OvCar 3), at a dose of 12.5 mg paclitaxel per kg or a dose of 50 mg paclitaxel derivative per kg.
CDF1 female mice, 5 or 10 mice per group, were intraperitoneally administered either paclitaxel-, 2′-C6-paclitaxel derivative-, or 2′-C16-paclitaxel derivative-containing liposomes, in a single dose, or 5 doses, of either 12.5, 25, 50, 100, 200, 300. 400 or 500 mg of paclitaxel or paclitaxel derivative per kg of mouse body weight.

[8] = tested on: A-549 human lung carcinoma; experiment: In vitro sensitivity, sulforhodamine B cytotoxicity assay, A-549 (Table 2); type: cell-based; conditions: Homo sapiens, A549; 72-hour incubation; averaged from two separate experiments
Procedure: Briefly, 96-well microtiter plates were inoculated (100 μL/well) with 5×10^3 (A549) or 7.5×10^3 (OVCAR-3) cells/well, in RPMI-1640 supplemented with 10% FBS (growth media). The plates were incubated for 24 hr at 37° C., 100% humidity and 5% CO2. At 24 hours, growth media (100 μL) was added to designated “time zero” plates. Similarly, serial dilutions of drug or vehicle (in media) were added (100 μL aliquots) to the test and vehicle control wells at twice the predetermined highest concentration. […] Cells (including time zero plates) were then fixed with 50 μL of 50% trichloroacetic acid (TCA) (w:v) for adherent cells or 80% TCA for suspended cells, and plates refrigerated at 4° C. for 1 hr. […] The plates were then air-dried for 24 hr.

[9] = High sensitivity differential scanning calorimetry on phosphocholine bilayers; type: physicochemical; conditions: DMPC, DPPC and DSPC bilayers, as high as 9.1 mol % (Lipid/Drug, 10:1)
Excerpt: High sensitivity differential scanning calorimetry (DSC) was used to examine the effect of addition of taxol and its acylated derivatives on the thermotropic phase properties of phosphocholine bilayers of saturated 1, 2-dimyristoyl-sn-glycero-3-phosphocholines (DMPC), 1,2-dipalmitoyl-sn-glycero-3-phosphocholines (DPPC), and 1,2-distearoyl-sn-glycero-3-phosphocholines (DSPC). Likewise, three acylated taxol prodrugs were varied in chain lengths from six, twelve, to sixteen carbons.

CDF1 mice [10] = experiment: In vivo toxicity, i.v. x 5, non-tumor bearing mice; conditions: 30 days observation
Procedure: as §1

in vivo = conditions: female, CDF1, mouse, plasma, intravenous, 25 mg/kg
Procedure: as §2

OVCAR-3 cancer cells = experiment: cells; conditions: Homo sapiens, OVCAR-3, 72 h, read-out: GI50 ± S.D. OVCAR-3
Procedure: Briefly, 96-well microtiter plates were inoculated (100 μL/well) with 5×10^3 (A549) or 7.5×10^3 (OVCAR-3) cells/well, in RPMI-1640 supplemented with 10% FBS (growth media). The plates were incubated for 24 hr at 37° C., 100% humidity and 5% CO2. At 24 hours, growth media (100 μL) was added to designated “time zero” plates. Similarly, serial dilutions of drug or vehicle (in media) were added (100 μL aliquots) to the test and vehicle control wells at twice the predetermined highest concentration. There were triplicate wells on each plate and duplicate plates (total 6 wells) for each drug concentration. The test plates were incubated as above for 72 hr. Cells (including time zero plates) were then fixed with 50 μL of 50% trichloroacetic acid (TCA) (w:v) for adherent cells or 80% TCA for suspended cells, and plates refrigerated at 4° C. for 1 hr. […] The bound stain was solubilized with 100 μL of 10 mM Tris buffer and the optical density was read spectrophotometrically at 490 nm (Microplate Reader Model 3550-UV, Bio-Rad, Hercules, Calif.). Percent growth was calculated as follows: (T-T0) / (C-T0)×100; where (T)=mean optical density of treated wells at a given drug concentration, (T0)=mean optical density of time zero wells, and (C)=mean optical density of control wells.

[11] = tested on: MCF-7/ADR (adriamycin-resistant); experiment: In vitro sensitivity, sulforhodamine B cytotoxicity assay, MCF-7/ADR (Table 2); type: cell-based, human; conditions: Homo sapiens, NCI/ADR-RES; 72-hour incubation; averaged from two separate experiments
[12] = tested on: OVCAR-3 human ovarian cancer; experiment: s.c. OVCAR-3 tumor, i.v. treatment, tumor volume (FIG. 7); type: in vivo, mice
Procedure: OVCAR-3 human ovarian cancer.
The tumor volume (mm^3) from tumor measurement was calculated: (Length * (Width/2)^2 * π). Mice were sacrificed when the average tumor volume of the group reached 1500 mm^3.

[13] = treated days 20, 22, 24, 26 and 28 i.p., 25 mg/kg
[14] = treated days 20, 22, 24, 26 and 28 i.p., 25 mg/kg, long-term survivors not included

CC(=O)O[C@H]1C(=O)[C@@]2(C)[C@H]([C@H](OC(=O)c3ccccc3)[C@]3(O)C[C@H](OC(=O)[C@H](O)[C@@H](NC(=O)c4ccccc4)c4ccccc4)C(C)=C1C3(C)C)[C@]1(OC(C)=O)CO[C@@H]1C[C@@H]2O [Paclitaxel, reference compound]
GI50 [1]: < 1.5 nM
tumor growth vs. control (A549 human lung cancer): significantly (p <0.05 vs. control) inhibited the tumor growth
Number of Mice surviving/Total (CDF1 mice [2]; i.p. days 1 through 5, 12.5 mg/kg): 20/20
Number of Mice surviving/Total (CDF1 mice [2]; i.p. days 1 through 5, 25 mg/kg): 10/20
Number of Mice surviving/Total (CDF1 mice [2]; i.p. days 1 through 5, 37.5 mg/kg): 0/10
Number of Mice surviving/Total (CDF1 mice [2]; i.p. days 1 through 5, 50 mg/kg): 0/25
MTD at 5 days [3]: 12.5 to 25 mg/kg
GI50 [4]: < 1.4 nM
medium survival times ([5]; 12.5 mg/kg i.v. on days 20, 22, 24, 26 & 28): 170 days
survival time vs. control ([5]; 12.5 or 25 mg/kg i.v. on days 1, 3, 5, 7, 9, 42, 44, 46, 48 & 50 (FIG. 6a)): significantly (p<0.05 vs. control) increased the survival time
survival time vs. control ([5]; i.v. on days 20, 22, 24, 26 & 28, BrC16HT 12.5 or 25 mg/kg, Taxol® 12.5 mg/kg (FIG. 6b)): significantly (p<0.05 vs. control) increased the survival time
Plasma level of paclitaxel ± SEM [6]: none detectable
GI50 (A549 cancer cells): 3.3 ± 0.8 nM
long-term survivors (LTS), in words ([7]; delayed i.p. schedule (Table 9b)): no long-term survivors were observed
survival of tumor-bearing mice vs. control ([7]; early (days 1, 3, 5, 7 & 9) and delayed (days 20, 22, 24, 26 & 28) i.p. treatment schedules): significantly prolonged (p<0.05 vs. control) the survival
% ILS [7, 13]: 84%
LTS/n (mice that survived to 300 days) [7, 13]: 0/10
MST Days ± SEM (n) [7, 14]: 188 ± 15 (10) Days
Median survival time [7, 14]: 185 days
survival time of tumor-bearing mice vs. control (A549 human NSCLC): significantly (p<0.05 vs. control) increased the survival time
number of mice that died within the first 14 days post-injection/total (CDF1 female mice; five doses of 12.5 mg/kg): 0/10
number of mice that died within the first 14 days post-injection/total (CDF1 female mice; five doses of 25 mg/kg): 10/10
number of mice that died within the first 14 days post-injection/total (CDF1 female mice; five doses of 50 mg/kg): 10/10
number of mice that died within the first 14 days post-injection/total (CDF1 female mice; single dose 12.5 mg/kg): 0/10
number of mice that died within the first 14 days post-injection/total (CDF1 female mice; single dose 25 mg/kg): 0/10
number of mice that died within the first 14 days post-injection/total (CDF1 female mice; single dose 50 mg/kg): 0/10
number of mice that died within the first 14 days post-injection/total (CDF1 female mice; single dose 100 mg/kg, 100 mg/kg): 5/5
number of mice that died within the first 14 days post-injection/total (CDF1 female mice; single dose 100 mg/kg, listed as paclitaxel, 100 mg/kg): all five of the mice
GI50 [8]: 2.3 nM
perturbation of PC bilayers (DSC) [9]: little or no effect on the perturbation of all three PC bilayers
Number of Mice surviving/Total (CDF1 mice [10]; i.v. days 1 through 5, 12.5 mg/kg): 10/10
Number of Mice surviving/Total (CDF1 mice [10]; i.v. days 1 through 5, 25 mg/kg): 8/10
Number of Mice surviving/Total (CDF1 mice [10]; i.v. days 1 through 5, 37.5 mg/kg): 0/7
Number of Mice surviving/Total (CDF1 mice [10]; i.v. days 1 through 5, 50 mg/kg): 0/8
concentration at 1 h (in vivo): 14400 ± 4600 ng/mL
concentration at 4 h (in vivo): < 5000 ng/mL
GI50 (OVCAR-3 cancer cells): 1.9 ± 0.03 nM
GI50 [11]: 4170 nM
delaying tumor growth ([12]; 25 mg/kg i.v. on days 1, 3, 5, 7 & 9): ~59 days
tumor growth vs. control ([12]; i.v. on days 1, 3, 5, 7 & 9, BrC16HT 12.5-25 mg/kg, Taxol® 25 mg/kg): significantly (p<0.05 vs. control) inhibited the tumor growth
